Target: T1, mitochondrial respiratory chain complex I (CI) (Bos taurus, UniProt P03887+P17694+P42026)
T1 construct: gene NDUFS2; whole CI enzyme immunocaptured from purified bovine heart mitochondria
Test: MitoTox Complex I OXPHOS Activity Microplate Assay (immunocaptured enzyme), dose-response
Assay type: biochemical

T1 sequence (P17694 34-463): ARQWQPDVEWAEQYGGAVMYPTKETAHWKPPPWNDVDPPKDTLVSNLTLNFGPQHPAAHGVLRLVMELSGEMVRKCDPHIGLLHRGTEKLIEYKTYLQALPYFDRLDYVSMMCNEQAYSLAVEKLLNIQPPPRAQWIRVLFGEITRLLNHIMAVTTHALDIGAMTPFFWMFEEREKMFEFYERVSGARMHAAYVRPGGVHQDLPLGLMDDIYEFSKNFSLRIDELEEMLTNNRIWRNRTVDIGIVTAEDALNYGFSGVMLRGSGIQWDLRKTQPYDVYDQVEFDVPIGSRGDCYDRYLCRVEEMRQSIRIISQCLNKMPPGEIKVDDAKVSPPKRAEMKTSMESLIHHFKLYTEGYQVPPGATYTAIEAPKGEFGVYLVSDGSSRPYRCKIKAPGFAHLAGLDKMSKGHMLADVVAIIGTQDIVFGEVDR
T1 sequence (P42026 38-216): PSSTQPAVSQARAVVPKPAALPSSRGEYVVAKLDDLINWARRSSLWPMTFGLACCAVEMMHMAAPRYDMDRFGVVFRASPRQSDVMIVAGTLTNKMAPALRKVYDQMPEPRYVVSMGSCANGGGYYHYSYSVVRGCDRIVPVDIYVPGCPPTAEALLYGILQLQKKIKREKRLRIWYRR
T1 sequence (P03887 whole entry): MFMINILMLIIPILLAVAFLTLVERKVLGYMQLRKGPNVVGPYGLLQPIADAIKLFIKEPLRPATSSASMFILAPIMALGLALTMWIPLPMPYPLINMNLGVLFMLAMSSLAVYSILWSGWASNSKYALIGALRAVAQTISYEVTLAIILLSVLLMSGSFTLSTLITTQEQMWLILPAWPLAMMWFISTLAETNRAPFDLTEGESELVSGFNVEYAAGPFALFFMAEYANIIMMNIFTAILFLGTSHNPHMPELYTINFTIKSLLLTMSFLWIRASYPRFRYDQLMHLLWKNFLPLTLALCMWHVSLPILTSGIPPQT

Cc1cc(-c2nc(-c3ccc(OC(F)(F)F)cc3)no2)nn1Cc1ccnc(N2CCN(C3CC3)CC2)c1 [BAY 87-2243]
IC50: ~500 nM
